Where two headings read alike, the source gives them in different places.
Tests used:
[1] = tested on: L. donovani IRFP intramacrophagic amastigotes; assay: Dose-response assay on ex vivo infected splenic explants (intramacrophagic amastigotes); format: cell-based, Leishmania donovani; conditions: Leishmania donovani, Splenocyte, read-out: EC50 Intramacrophagic Amastigotes
[2] = tested on: L. donovani IRFP axenic amastigotes; assay: Dose-response assay on axenic amastigotes; format: cell-based, Leishmania donovani; conditions: Leishmania donovani
Description: The objective of the present study was to identify new antileishmanial drug candidates by screening a commercial library of plant-derived alkaloids using a platform based on axenic amastigotes of L. donovani IRFP—the causative agent of VL—genetically modified to emit infrared fluorescence during their viable stage (hereafter referred to as L. donovani IRFP). To this end, single-dose assays at 10 μM and 1 μM, as well as dose–response assays, were performed. Compounds showing significant activity in the initial screening were subsequently clustered according to chemical structure using the DataWarrior tool, and representative compounds were further evaluated in dose response assays against axenic amastigotes.
Female Balb/c mice aged from 6 to 8 weeks were intraperitoneally inoculated with 1.5 × 10^9 infective L. donovani IRFP metacyclic promastigotes. Between 8 and 12 weeks after infection, mice were humanely euthanised and bone marrow was collected from the femurs and tibias of both hind limbs. The bones were cut at both ends, and prewarmed PBS was flushed through the medullary cavity using a syringe fitted with a 27G needle, to extract the bone marrow cells. The resulting cell suspension was filtered through a 100 µm cell strainer and centrifuged at 2500 rpm for 10 min at room temperature. To obtain free amastigotes, the pelleted cells were resuspended within a 75 mL ventilated flask in amastigote culture medium (15 mM KCl; 136 mM KH2PO4; 10 mM K2HPO4.3H2O; 0.5 mM MgSO4.7 H2O; 24 mM NaHCO3; 22 mM glucose; 1 mM glutamine, 1x RPMI 1640 vitamin mix (Sigma-Aldrich, Merck, Darmstadt, Germany), 10 mM folic acid, […], 1x RPMI amino acid mix (Sigma-Aldrich, Merck, Darmstadt, Germany), […], antibiotic mixture, 25 mM MES, 10% FBS (Gibco, ThermoFisher Scientific, Waltham, MA, USA) and incubated at 37 °C in a humidified atmosphere containing 5% CO2 [46].
The efficacy of the selected compounds was assessed by measuring near-infrared fluorescence (700 nm) using an Odyssey Infrared Imaging System (Li-Cor, Lincoln, NE, USA) following the previously described protocols.

[3] = tested on: L. donovani IRFP axenic amastigotes; assay: Primary single-concentration screening on axenic amastigotes, growth inhibition at 72 h; format: cell-based, Leishmania donovani; conditions: for inhibition at 1 µM / inhibition at 10 µM: Leishmania donovani
[4] = Cytotoxicity in HepG2 cells (alamarBlue, 72 h); conditions: human
Description: (§1) To this end, we calculated SIs from 16 preselected results from the ex vivo system. With this aim, dose–response curves were performed in duplicate across at least three independent experiments using RAW 264.7 mouse macrophages (as a model of host cells harboring amastigotes) and HepG2 (as a model for assessing systemic toxicity).
(§2) To evaluate the safety of the selected compounds, two cell lines were employed: RAW 264.7 (a mouse macrophage-derived cell line) and HepG2 (a human hepatoma cell line). Furthermore, to determine the intestinal tolerance relevant to potential oral administration, mouse intestinal organoids were prepared.
(§3) RAW 264.7 and HepG2 were routinely cultured under standard conditions. RAW 264.7 cells were maintained in RPMI medium (Gibco) supplemented with, 25 mM HEPES, 24 mM NaHCO3, 2 mM L-glutamine, mixture of antibiotics and 10% FBS. HepG2 cells were cultured in DMEM/F-12 (Gibco) and supplemented 10% of FBS. For cytotoxicity assays, 10,000 cells per well were seeded into 96-well plates and incubated overnight at 37 °C with 5% of CO2. Subsequently, 2-fold serial dilutions of the compounds were added and incubated for 72 h. Cell viability using the alamarBlue™ assay according to the manufacturer’s instructions, and fluorescence was measured with a Varioskan™ LUX microplate reader (ThermoFisher Scientific, Waltham, MA, USA). Non-linear regression analyses were performed using SigmaPlot^TM software (version 10.0) to calculate CC50. Data were obtained from at least three independent experiments performed in duplicate.

[5] = Cytotoxicity in RAW 264.7 cells (alamarBlue, 72 h); conditions: mouse
Description: as §1, §2, §3

[6] = primary cultures of infected mouse splenocytes
[7] = 1 µM, experiment 1, 72 h, axenic amastigotes, read-out: Growth Inhibition (%) at 72h, 1 µM_Exp1
[8] = 1 µM, experiment 2, 72 h, axenic amastigotes, read-out: Growth Inhibition (%) at 72h, 1 µM_Exp2
[9] = 10 µM, experiment 1, 72 h, axenic amastigotes, read-out: Growth Inhibition (%) at 72h, 10 µM_Exp1
[10] = 10 µM, experiment 2, 72 h, axenic amastigotes, read-out: Growth Inhibition (%) at 72h, 10 µM_Exp2
[11] = 1 µM, experiment 1, 72 h, axenic amastigotes
[12] = 1 µM, experiment 2, 72 h, axenic amastigotes
[13] = 10 µM, experiment 1, 72 h, axenic amastigotes
[14] = 10 µM, experiment 2, 72 h, axenic amastigotes

Compound | inhibition at 1 µM [3, 7] [%] | inhibition at 1 µM [3, 8] [%] | inhibition at 10 µM [3, 9] [%] | inhibition at 10 µM [3, 10] [%] | Growth Inhibition (%) at 72h, 1 µM_Exp1 [3, 11] [%] | Growth Inhibition (%) at 72h, 1 µM_Exp2 [3, 12] [%] | Growth Inhibition (%) at 72h, 10 µM_Exp1 [3, 13] [%] | Growth Inhibition (%) at 72h, 10 µM_Exp2 [3, 14] [%] | other results
COc1cc2c3c(cc4ccccc4c3c1OC)N(C)CC2 [Dehydronuciferine] | 86.7 | 77.8 | 100 | 100 | – | – | – | – | EC50 [1, 6]: > 50 µM; IC50 [2]: 1.23 ± 0.03 µM; CC50 at 72 h ([4]; HepG2 hepatoma cells): 25.5 ± 5.43 µM; CC50 at 72 h ([5]; RAW 264.7 macrophage cells): 18.6 ± 1.11 µM
COc1ccc2c(c1OC)CN(C)c1c-2ccc2cc3c(cc12)OCO3 [Dihydrochelerythrine] | 100 | 97.9 | 100 | 100 | – | – | – | – | EC50 [1, 6]: 10.5 ± 0.75 µM; IC50 [2]: 0.06 ± 0.005 µM; CC50 at 72 h ([4]; HepG2 hepatoma cells): > 50 µM; CC50 at 72 h ([5]; RAW 264.7 macrophage cells): > 50 µM
CN1Cc2c(ccc3c2OCO3)-c2ccc3cc4c(cc3c21)OCO4 [Dihydrosanguinarine] | 99.3 | 97.6 | 99.8 | 99.7 | – | – | – | – | EC50 ([1]; in Mus musculus): 8.55 ± 1.33 µM; IC50 [2]: 0.19 ± 0.01 µM; CC50 at 72 h [4]: > 40 µM; CC50 at 72 h [5]: 46.5 ± 10.1 µM
CN1[C@@H](CC(=O)c2ccccc2)CCC[C@H]1CC(=O)c1ccccc1 [Lobelanine] | – | – | – | – | -73.70 | 10.47 | 75.56 | 20.66 | –
O=C1C=CC(=O)N1 [Maleimide] | 101 | 101 | 101 | 101 | – | – | – | – | –
CN1C(=O)/C(=C2/C(=O)Nc3ccccc32)c2ccccc21 [Meisoindigo] | 100 | 100 | 100 | 100 | – | – | – | – | EC50 [1, 6]: 9.3 ± 0.52 µM; IC50 [2]: 1.53 ± 0.21 µM; CC50 at 72 h ([4]; HepG2 hepatoma cells): 20.4 ± 1.4 µM; CC50 at 72 h ([5]; RAW 264.7 macrophage cells): 14.9 ± 0.9 µM
CCCCC/C=C\C/C=C\CCCCCCCC(=O)NCc1ccccc1 [N-Benzyllinoleamide] | – | – | – | – | 23.06 | -24.6 | 99.77 | 99.86 | –
CC/C=C\C/C=C\C/C=C\CCCCCCCC(=O)NCc1ccccc1 [N-Benzyllinolenamide] | – | – | – | – | -37.93 | -43.83 | 99.95 | 100.85 | –
O=C1N[C@@H]2C(=C[C@H](O)[C@@H](O)[C@H]2O)c2cc3c(c(O)c21)OCO3 [Narciclasine] | – | – | – | – | -12.26 | -86.55 | 84.56 | 93.45 | –
CC[C@@H]1[C@H]2CCCCN3[C@H]2[C@@H](C[C@H]3[C@@H]2C[C@H](C)C(=O)O2)[C@H]2[C@@H]1OC(=O)[C@H]2C [Neotuberostemonine] | 38 | 69.7 | 101 | 101 | – | – | – | – | EC50 [1, 6]: > 25 µM; IC50 [2]: 1.27 ± 0.06 µM; CC50 at 72 h [4]: > 50 µM; CC50 at 72 h [5]: 39.1 ± 2.2 µM
CCCCCCCCC(=O)NCc1ccc(O)c(OC)c1 [Nonivamide] | 10.9 | -30.7 | 101 | 93.3 | – | – | – | – | –
COc1cc(CNC(=O)CCCCCC(C)C)ccc1O [Nordihydrocapsaicin] | – | – | – | – | – | – | – | – | Growth Inhibition (%) at 72h, 1 µM_Exp1 [3]: 1.91%; Growth Inhibition (%) at 72h, 1 µM_Exp2 [3]: -21.65%; Growth Inhibition (%) at 72h, 10 µM_Exp1 [3]: 90.15%; Growth Inhibition (%) at 72h, 10 µM_Exp2 [3]: 70.24%
CC(C)(O)[C@H]1O[C@H]2CC[C@@]3(C)[C@@](O)(CC[C@H]4Cc5c([nH]c6ccccc56)[C@@]43C)C2=CC1=O [Paxilline] | 6.12 | 19.6 | 98.6 | 99.1 | – | – | – | – | –
O=C(O)c1cccc2nc3ccccc3nc12 [Phenazine-1-carboxylic acid] | -12.2 | -87 | 90.8 | 87.8 | – | – | – | – | –
O=C(/C=C/C=C/c1ccc2c(c1)OCO2)N1CCCCC1 [Piperine] | 38.3 | 17.5 | -7.31 | 75.2 | – | – | – | – | –
COc1cc(/C=C/C(=O)N2CCC=CC2=O)cc(OC)c1OC [Piperlongumine] | – | – | – | – | 99.95 | 98.63 | 100.21 | 100.05 | –
Cc1ncc(CO)c(CO)c1O.Cl [Pyridoxine (hydrochloride)] | – | – | – | – | 6.77 | -86.02 | 79.17 | 65.78 | –
COc1c2ccoc2nc2c(O)cccc12 [Robustine] | 48.3 | 1.86 | 90.6 | 33.3 | – | – | – | – | –
CC[C@@]1(O)C(=O)OCc2c1cc1n(c2=O)Cc2cc3c([N+](=O)[O-])cccc3nc2-1 [Rubitecan] | 69.8 | 36.9 | 94.4 | 89.4 | – | – | – | – | –
C[C@@H]1CC[C@@]2(NC1)O[C@H]1C[C@H]3[C@@H]4CC=C5C[C@@H](O[C@@H]6O[C@H](CO)[C@@H](O[C@@H]7O[C@@H](C)[C@H](O)[C@@H](O)[C@H]7O)[C@H](O)[C@H]6O[C@@H]6O[C@@H](C)[C@H](O)[C@@H](O)[C@H]6O)CC[C@]5(C)[C@H]4CC[C@]3(C)[C@H]1[C@@H]2C [Solamargine] | 62.8 | 11.2 | 93.6 | 94.3 | – | – | – | – | –
CC[C@]12C=CCN3CC[C@]4(C(=C(C(=O)OC)C1)Nc1ccccc14)[C@@H]32 [Tabersonine] | -26.2 | -7.79 | 98 | 61.5 | – | – | – | – | –
C[C@H]1CC[C@]2(NC1)O[C@H]1C[C@H]3[C@@H]4CC[C@H]5C[C@@H](O)CC[C@]5(C)[C@H]4CC[C@]3(C)[C@H]1[C@@H]2C [Tomatidine] | 11.2 | 18.6 | 66.9 | 75.1 | – | – | – | – | –
O=C1c2ccccc2-n2c1nc1ccccc1c2=O [Tryptanthrin] | 13.1 | 23.4 | 84.1 | 75 | – | – | – | – | –
CC[C@]1(O)C[C@@H]2CN(CCc3c([nH]c4ccccc34)[C@@](C(=O)OC)(c3cc4c(cc3OC)N(C)[C@H]3[C@@](O)(C(=O)OC)[C@H](OC(C)=O)[C@]5(CC)C=CCN6CC[C@]43[C@@H]65)C2)C1.O=S(=O)(O)O [Vinblastine (sulfate)] | – | – | – | – | -20.42 | -25.23 | 99.34 | 78.77 | –
Evocarpine | – | – | – | – | -18.62 | -35.10 | 100.35 | 98.71 | –
Evodiamine | – | – | – | – | -42.64 | 25.77 | 94.67 | 96.80 | –

From article PMC12608155, “Discovery of Potential Antileishmanial Compounds Through Phenotypic Screening of an Alkaloid Library” (Molecules, 2025)
